According to patent publication US20260232699A1, “COMPOSITIONS OF A CANNABINOID AND A KINASE INHIBITOR FOR THE TREATMENT OF CANCER” (SINOVEDA CANADA INC., priority 2023, published 2026):
In brackets after ≈: the same amount, converted by molar mass.

Columns and labels:
[1] = cited from earlier work
HepG2 cells [2] = assay: HepG2 cell proliferation assay (XTT); type: cell-based, human; settings: IMDM media with 20% FBS and 1% ethanol, read-out: predetermined IC50 concentrations
Protocol: HepG2 cells were obtained from the American Type Culture Collection (ATCC). Normal hepatocyte pool of cells was acquired from Xenotech. Cryopreserved cells in DMEM containing 5% DMSO were thawed and diluted 10-fold in phenol red free DMEM media containing 10% fetal bovine serum, 100 μg/ml penicillin/streptomycin, supplemented with Glutamax™ and sodium pyruvate. Subsequently, cells were centrifuged at 20 g for 10 minutes. The cells were resuspended in the same media with added Revitacell® to a concentration of […]. Ninety-six well cell culture treated flat bottom plates were seeded with 7.5×10^3 cells in 100 μl and incubated at 37° C., 7.5% CO2, >95% relative humidity for 18 hours to allow cellular adhesion after which media was replaced with like media (DMEM, IMDM, Williams E) containing 1 to 20% FBS and various test compounds (10 μg/ml to 100 ng/ml). After 48 hours (2 doublings of cells), sodium; 2-(2-methoxy-4-nitro-5-sulfonatophenyl)-3-(2-methoxy-4-nitro-5-sulfophenyl)-N-phenyltetrazol-3-ium-5-carboximidate (XTT) (300 μg/ml) was added, and cells incubated for 2 hours. Formazan production was measured at 450 nm on a Varioskan lux spectrophotometer. Non-specific absorption was measured at 660 nm and subtracted from the reference measurement at 450 nm. Experiments were performed in triplicates (n=3). […]
The objectives of this example are to, first, establish the procedure of a two-component interaction study; and second, establish a method of analysis to identify potential interactions among the two components/compounds. […] Following 48 hours of incubation, the IC50 values of various mixtures were obtained and compared with the pure compound's IC50 values and predicted/calculated IC50 values for the various mixtures. […]
Samples from the serial dilutions were analyzed by LC-MS/MS to orthogonally confirm concentrations. […]
To assess potential interactions, the IC50 values for individual cannabinoids in the control lanes were calculated and used to predict and IC50 value for the summation of their individual components.

HepG2 cells [3] = assay: rtPCR gene expression analysis (TaqMan array card); type: cell-based, human
Protocol: Target cancer gene pathways were analyzed using a custom Taqman® array card exploring 90 unique genes associated with cancer related pathways (Kanehisa, Goto et al. 2010).
Two million HepG2 cells in IMDM media with 20% FBS, and 1% ethanol were seeded in T75 flasks and incubated at 37° C., 7.5% CO2 until 70-80% confluent (approx. […]). […] Untreated cells were included as a negative control. Glyceraldehyde-3-phosphate dehydrogenase (GAPDH) was included as an endogenous control and used for normalization of the data.
Following a 6-hour incubation with the test compounds, the RNA was extracted using Invitrogen's Dynabead mRNA DIRECT kit using the recommended protocol to provide 50 μL of a purified mRNA solution. Fifty μL of RT master mix was mixed into the mRNA solution and the mixture left to react at 37° C. for 60 minutes. Reverse transcriptase inactivation was performed at 95° C. for 5 minutes and the resulting cDNA samples were kept at 4° C. until use. Fifty-five microliters of TaqMan Fast Advance master mix were added to an equal amount of cDNA sample containing 1 μg/100 μl of cDNA, which was loaded into each card reservoir. The cards were centrifuged twice at 1200 RPM for 3 minutes in a Legend XFR centrifuge and the rtPCR reaction was conducted in a QuantStudio7 PCR instrument using the recommended settings with 40 amplification cycles. Data processing was done using ThermoFisher's Connect™ application.

PDX tumor model (575) = assay: In vivo PDX model with drug-loaded nanonails; set-up: species or system NCG mice; settings: intra-tumoral nanonail, 72 hours
Protocol: Drug candidates were mixed with FITC-labeled PEG-5000 with a milligram ratio of 2:8 in a suitable solvent and lyophilized to dryness. Samples of the resultant mixtures (10 mg) were loaded into nanonails (Kibur Medical Inc.), a device invented to test multiple samples in a single tumor. The dimension of the cylindrical device is 4 mm×820 μm containing 18 reservoirs 200 μm wide and 250 μm deep. The loaded devices were kept at −80° C. until tumor implant. NCG mice (female, 8-12 weeks old) from Charles River were injected subcutaneously with 100 μL of LIXF-575 cells per mouse. The body weight of the mice and caliper measurements of the tumors were performed every 3 days until the tumors reached 300-400 mm^3 (about 12 weeks). Nine mice were used for intra-tumoral implantation. […]

[4] = Cell Cycle, 6 h at IC50 concentration, relative to negative control
[5] = MAP kinase, 6 h at IC50 concentration, relative to negative control
[6] = PI3K pathway, 6 h at IC50 concentration, relative to negative control

C=C(C)[C@@H]1CCC(C)=C[C@H]1c1c(O)cc(CCCCC)c(C(=O)O)c1O [CBDA, cannabidiolic acid]
times more water soluble compared to CBD ([1]; CBDA versus its decarboxylated counterpart): about 25,000 times | water solubility [1]: 17.5 mg/mL (≈ 48.8 mM)

CCCCCc1cc2c(c(O)c1C(=O)O)-c1cc(C)ccc1C(C)(C)O2 [CBNA, cannabinolic acid]
IC50 (HepG2 cells [2]): 20 µM | ΔΔCt VEGFA (HepG2 cells [3]; Angiogenesis, 6 h at IC50 concentration, relative to negative control): −2.861 | ΔΔCt BAX (HepG2 cells [3]; [4]): −1.062 | ΔΔCt BECN1 (HepG2 cells [3]; [4]): −1.7 | ΔΔCt CCND2 (HepG2 cells [3]; [4]): −1.539 | ΔΔCt CCNE1 (HepG2 cells [3]; [4]): −2.445 | ΔΔCt CDK1 (HepG2 cells [3]; [4]): 1.051 | ΔΔCt CDK2 (HepG2 cells [3]; [4]): 1.102 | ΔΔCt MNT (HepG2 cells [3]; [4]): −1.868 | ΔΔCt MITF (HepG2 cells [3]; Drug Resistance, 6 h at IC50 concentration, relative to negative control): −2.367 | downregulation of the ERBB2/HER2 receptor (HepG2 cells [3]; HepG2, 6 hour timeframe): 8 fold | ΔΔCt ERBB2 (HepG2 cells [3]; [5]): 3.097 | ΔΔCt MAP1LC3A (HepG2 cells [3]; [5]): −1.26 | ΔΔCt MAP2K2 (HepG2 cells [3]; [5]): −1.607 | ΔΔCt RASA1 (HepG2 cells [3]; [5]): −1.904 | ΔΔCt PIK3CA (HepG2 cells [3]; [6]): −1.639 | ΔΔCt PTEN (HepG2 cells [3]; [6]): −1.446 | ΔΔCt SMAD3 (HepG2 cells [3]; TGF signaling, 6 h at IC50 concentration, relative to negative control): 2.577 | cell proliferation (Ki67) in nanonail implanted 575 PDX tumors (PDX tumor model (575)): not significantly affected
